Patent publication US20250154169A1, “COMPOUNDS AND METHODS FOR MODULATING SPLICING” (REMIX THERAPEUTICS INC., priority 2021, published 2025)
Where a name gives a salt, the structure may show the parent alone. Read-outs that look alike come from different tables or passages of the source.

How the values were obtained:
Format in all cases: cell-based, human
Target C mRNA = test: Splicing RT-qPCR gene panel, Target C canonical junction (CJ) mRNA; details: Tables 4A/4B, read-out: Target C (IC50, decrease in CJ mRNA, gene panel)
Summary of the method: (§1)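 A673/K562, 24 h cpd, 11-pt 3-fold from 10 uM, DMSO ≤0.25%. Lysis, direct RT-qPCR of CJ isoform, ≥duplicate. GAPDH/GUSB/PPIA norm, ΔΔCt vs DMSO → RQ → % response.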

SMN2 mRNA = test: Splicing RT-qPCR gene panel, SMN2 canonical junction (CJ) mRNA; details: Homo sapiens, Tables 4A/4B, read-out: SMN2 (IC50, decrease in CJ mRNA, gene panel)
Summary of the method: as §1

HTT mRNA [1] = test: Splicing RT-qPCR gene panel, HTT canonical junction (CJ) mRNA; details: Tables 4A/4B, read-out: HTT (IC50, decrease in CJ mRNA, gene panel)
Summary of the method: as §1

HTT mRNA [2] = test: Splicing RT-qPCR assay, HTT canonical (CJ) and alternative (AJ) junction mRNA
Summary of the method: (§2)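 Compound-induced exon inclusion is tracked as an increase in AJ transcript alongside the CJ transcript. Cells (A673 normalized to PPIA; K562 to GAPDH or GUSB) are dosed 24 h with a serial dilution topping at 10 uM, ≤0.25% DMSO, then lysed and analysed by RT-qPCR in at least duplicate.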

MYB mRNA = test: Splicing RT-qPCR assay, MYB canonical (CJ) and alternative (AJ) junction mRNA
Summary of the method: as §2

[3] = Homo sapiens, 24 h, A673 or K562 cells, 24 hours compound treatment, read-out: HTT CJ (IC50, decrease in canonical junction mRNA)
[4] = Homo sapiens, A673 or K562 cells, 24 hours compound treatment, read-out: HTT AJ (AC50, increase in alternative junction mRNA)
[5] = Homo sapiens, 24 h, A673 or K562 cells, 24 hours compound treatment, RT-qPCR, read-out: MYB AJ (AC50, increase in alternative junction mRNA)
[6] = Homo sapiens, 24 h, A673 or K562 cells, 24 hours compound treatment, RT-qPCR, read-out: MYB CJ (IC50, decrease in canonical junction mRNA)
[7] = Homo sapiens, Tables 4A/4B, canonical junction qPCR panel, read-out: MYB (IC50, decrease in CJ mRNA, gene panel)
[8] = Homo sapiens, Table 3B, alternative junction mRNA, read-out: HTT AJ (AC50, increase in AJ mRNA)
[9] = Homo sapiens, Table 3B, canonical junction mRNA, read-out: HTT CJ (IC50, decrease in CJ mRNA)
[10] = Homo sapiens, Table 3B, canonical junction mRNA, RT-qPCR, read-out: MYB CJ (IC50, decrease in CJ mRNA)
[11] = Homo sapiens, Table 3B, alternative junction mRNA, RT-qPCR, read-out: MYB AJ (AC50, increase in AJ mRNA)

| Compound | IC50 (Target C mRNA; Homo sapiens) [µM] | IC50 (SMN2 mRNA) [µM] | IC50 (HTT mRNA [1]; Homo sapiens) [µM] | IC50 (HTT mRNA [2]; [3]) [µM] | AC50 (HTT mRNA [2]; [4]) [µM] | AC50 (MYB mRNA; [5]) [µM] | IC50 (MYB mRNA; [6]) [µM] | IC50 (MYB mRNA; [7]) [µM] | AC50 (HTT mRNA [2]; [8]) [µM] | IC50 (HTT mRNA [2]; [9]) [µM] | IC50 (MYB mRNA; [10]) [µM] | AC50 (MYB mRNA; [11]) [µM] | IC50 (Target C mRNA) [µM] | IC50 (HTT mRNA [1]) [µM] | IC50 (HTT mRNA [2]; A673 or K562 cells, 24 hours compound treatment, read-out: HTT CJ (IC50, decrease in canonical junction mRNA)) [µM] | AC50 (MYB mRNA; A673 or K562 cells, 24 hours compound treatment, RT-qPCR, read-out: MYB AJ (AC50, increase in alternative junction mRNA)) [µM] | IC50 (MYB mRNA; A673 or K562 cells, 24 hours compound treatment, RT-qPCR, read-out: MYB CJ (IC50, decrease in canonical junction mRNA)) [µM] | IC50 (MYB mRNA; Tables 4A/4B, canonical junction qPCR panel, read-out: MYB (IC50, decrease in CJ mRNA, gene panel)) [µM] |
| --- | --- | --- | --- | --- | --- | --- | --- | --- | --- | --- | --- | --- | --- | --- | --- | --- | --- | --- |
| Cc1cn2cc(NC(=O)c3ccc(N4CCC(N5CCCC5)C4)c4cc(C)oc34)cc(F)c2n1 (centres unmarked) [Compound 204] | 1 to 10 | < 0.1 | 1 to 10 | 1 to 10 | 1 to 10 | 0.1 to 1 | 0.1 to 1 | 0.1 to 1 |  |  |  |  |  |  |  |  |  |  |
| Cc1cn2nc(NC(=O)c3ccc(N4CCNCC4)c4cn(C)nc34)cc(C)c2n1 [Compound 322, N-{2,8-dimethylimidazo[1,2-b]pyridazin-6-yl}-2-methyl-4-(piperazin-1-yl) indazole-7-carboxamide hydrochloride] | > 10 | 1 to 10 | > 10 | > 10 | > 10 | > 10 | 1 to 10 | 1 to 10 |  |  |  |  |  |  |  |  |  |  |
| Cc1cn2cc(NC(=O)c3ccc(N4CCNCC4)c4cc(C)oc34)cc(C)c2n1 [Compound 267] | > 10 | < 0.1 | > 10 | > 10 | 1 to 10 | 0.1 to 1 | 1 to 10 | 1 to 10 |  |  |  |  |  |  |  |  |  |  |
| Cc1cn2cc(NC(=O)c3ccc(N4CCNCC4)c4nc(C)nn34)cc(F)c2n1 [Compound 946] | 0.1 to 1 | < 0.1 | < 0.1 |  |  |  |  | < 0.1 | 0.1 to 1 | < 0.1 | < 0.1 | < 0.1 |  |  |  |  |  |  |
| Cc1cn2cc(NC(=O)c3ccc(N4CC[C@H](NC5CC5)C4)c4cn(C)nc34)cc(F)c2n1 [Compound 372, 4-[(3S)-3-(cyclopropylamino)pyrrolidin-1-yl]-N-{8-fluoro-2-methylimidazo[1,2-a]pyridin-6-yl}-2-methylindazole-7-carboxamide] | > 10 | < 0.1 | > 10 | 1 to 10 | 1 to 10 | < 0.1 | < 0.1 | < 0.1 |  |  |  |  |  |  |  |  |  |  |
| CCn1cc2c(N3CCC(C)(NC)CC3)ccc(C(=O)Nc3cc(F)c4nc(C)cn4c3)c2n1 [Compound 423, 2-ethyl-N-{8-fluoro-2-methylimidazo[1,2-a]pyridin-6-yl}-4-[4-methyl-4-(methylamino)piperidin-1-yl]indazole-7-carboxamide] | 1 to 10 | < 0.1 | 0.1 to 1 | 0.1 to 1 | 0.1 to 1 | < 0.1 | < 0.1 | < 0.1 |  |  |  |  |  |  |  |  |  |  |
| Cc1cc2c(N3CCNCC3)ccc(C(=O)Nc3cn[nH]c3)c2o1 [Compound 268] | > 10 | > 10 | > 10 | > 10 | > 10 | > 10 | > 10 | > 10 |  |  |  |  |  |  |  |  |  |  |
| Cc1cn2nc(-c3ccc(C(=O)NC4CCNCC4)c4nn(C)cc34)cc(C)c2n1 [Compound 281] | 1 to 10 | 0.1 to 1 | 1 to 10 | 1 to 10 | 1 to 10 | 1 to 10 | 1 to 10 | 1 to 10 |  |  |  |  |  |  |  |  |  |  |
| CC1=NC2C=C(NC(=O)c3ccc(N4CCNC(C)(C)C4)c4cn(C)nc34)C=C(F)C2=N1 (centres unmarked) [Compound 240] | 1 to 10 | < 0.1 | 0.1 to 1 | 0.1 to 1 | 0.1 to 1 | < 0.1 | < 0.1 | < 0.1 |  |  |  |  |  |  |  |  |  |  |
| Cc1cn2cc(NC(=O)c3ccc(N4CCNCC4)c4cn(C)nc34)c(F)cc2n1 [Compound 333, N-{7-fluoro-2-methylimidazo[1,2-a]pyridin-6-yl}-2-methyl-4-(piperazin-1-yl) indazole-7-carboxamide trifluoroacetate] | > 10 | < 0.1 | 1 to 10 | 1 to 10 | 1 to 10 | 0.1 to 1 | 0.1 to 1 | 0.1 to 1 |  |  |  |  |  |  |  |  |  |  |
| CCn1cc2c(N3CCNC4(CC4)C3)ccc(C(=O)Nc3cc(F)c4nc(C)cn4c3)c2n1 [Compound 379, 4-{4,7-diazaspiro[2.5]octan-7-yl}-2-ethyl-N-{8-fluoro-2-methylimidazo[1,2-a]pyridin-6-yl}indazole-7-carboxamide] | 1 to 10 | < 0.1 | 1 to 10 | 1 to 10 | > 10 | 1 to 10 | 0.1 to 1 | 0.1 to 1 |  |  |  |  |  |  |  |  |  |  |
| CCn1cc2c(C3OCC(N)CO3)ccc(C(=O)Nc3cc(F)c4nc(C)cn4c3)c2n1 (centres unmarked) [Compound 455, 4-(5-amino-1,3-dioxan-2-yl)-2-ethyl-N-{8-fluoro-2-methylimidazo[1,2-a]pyridin-6-yl}indazole-7-carboxamide] | 1 to 10 | 0.1 to 1 | 1 to 10 | > 10 | > 10 | > 10 | > 10 | 0.1 to 1 |  |  |  |  |  |  |  |  |  |  |
| Cc1cn2cc(NC(=O)c3cnc(N4CCC(NC5CC5)C4)c4cn(C)nc34)cc(F)c2n1 (centres unmarked) [Compound 966] | < 0.1 | < 0.1 | < 0.1 |  |  |  |  | < 0.1 | < 0.1 | < 0.1 | < 0.1 | < 0.1 |  |  |  |  |  |  |
| Cc1cn2nc(-c3ccc(C(=O)NC4CCNCC4)c4oc(C)cc34)cc(C)c2n1 [Compound 282] | > 10 | 0.1 to 1 | 1 to 10 | 1 to 10 | 1 to 10 | > 10 | > 10 | > 10 |  |  |  |  |  |  |  |  |  |  |
| Cc1cn2cc(NC(=O)c3ccc(N4CCNCC4)c4cn(CCCl)nc34)cc(F)c2n1 [Compound 337, 2-(2-chloroethyl)-N-{8-fluoro-2-methylimidazo[1,2-a]pyridin-6-yl}-4-(piperazin-1-yl)indazole-7-carboxamide] | > 10 | < 0.1 | 1 to 10 | 1 to 10 | 1 to 10 | 0.1 to 1 | 0.1 to 1 | 0.1 to 1 |  |  |  |  |  |  |  |  |  |  |
| CC1=CC2=NC(C)=NC2C=C1NC(=O)c1ccc(N2CCNCC2)c2cn(C)nc12 (centres unmarked) [Compound 237] | > 10 | < 0.1 | 1 to 10 | 1 to 10 | 1 to 10 | < 0.1 | 0.1 to 1 | 0.1 to 1 |  |  |  |  |  |  |  |  |  |  |
| Cc1cn2cc(NC(=O)c3ccc(N4CCNCC4)c4cn(C)nc34)c(C#N)cc2n1 [Compound 444, N-{7-cyano-2-methylimidazo[1,2-a]pyridin-6-yl}-2-methyl-4-(piperazin-1-yl) indazole-7-carboxamide] |  | < 0.1 |  |  | > 10 |  |  |  |  |  |  |  | 1 to 10 | 1 to 10 | 1 to 10 | 0.1 to 1 | 0.1 to 1 | < 0.1 |
| Cc1cn2cc(NC(=O)c3ccc(N4CCNCC4)c4cn(C)nc34)cc(Cl)c2n1 [Compound 269] |  | < 0.1 | 0.1 to 1 | 0.1 to 1 | 0.1 to 1 | < 0.1 | < 0.1 | < 0.1 |  |  |  |  | 1 to 10 |  |  |  |  |  |
| Cc1cn2cc(NC(=O)c3ccc(N4CC5(CN(C)C5)C4)c4cc(C)oc34)cc(F)c2n1 [Compound 206] | > 10 | < 0.1 | 1 to 10 | 1 to 10 | 1 to 10 | 0.1 to 1 | 0.1 to 1 | 0.1 to 1 |  |  |  |  |  |  |  |  |  |  |
